Source: PubChem BioAssay AID1312 (NMMLSC, 2008)
Active and inactive are the calls of the source.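 Rule for the calls: active = area under the green fluorescent protein level over time curve over 15% above untreated cells; inactive = the rest.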 Peptide text beside a SMILES is read from it. * marks the point of attachment. Cbz = O=C(OCc1ccccc1)*

Tested on: S. cerevisiae Sic1-GFP degradation, flow cytometry time course
Experiment: degradation of ubiquitination-site mutant Sic1-GFP in yeast, confirmation, mechanism study for 26S proteasome disassembly project, flow cytometry, Sic1MUS mutant, S. cerevisiae (AID 1312)

Row | SMILES | outcome
1 | CC(C)C[C@@H](C=O)NC(=O)[C@H](CC(C)C)NC(=O)[C@H](CC(C)C)NC(=O)OCc1ccccc1 (Cbz-Leu-Leu-Leu-aldehyde) | inactive
2 | CC(=O)N1C(=O)C(=C2C=C(C)OC(C)=C2)c2ccccc21 | active; degradation inhibitor
